The values below are quoted from earlier work in patent US20050187278A1, “Treatment or prevention of vascular disorders with Cox-2 inhibitors in combination with cyclic AMP-specific phosphodiesterase inhibitors” (Pharmacia Corporation, priority 2003, published 2005).

The test system of data set [1] is PDE4.
For a further data set, the system named is PDE3. The conditions noted are these: first of two values given 'respectively' for PDE3 and 4.
In data set [2] the test system is PDE4. The conditions noted are these: second of two values given 'respectively' for PDE3 and 4.

Each structure is given as a SMILES string.

With `COc1ccc([C@H]2CNC(=O)C2)cc1OC1CCCC1` [Compound C7, (4S)-4-[3-(Cyclopentyloxy)-4-methoxyphenyl]pyrrolidin-2-one], the “activity relative to the other enantiomer of the PDE4 inhibitor rolipram” value in the data set on PDE4 [1] (in words) is reported as “Less active”.
As for `COc1ccc([C@@H]2CNC(=O)C2)cc1OC1CCCC1` [Compound C6, (4R)-4-[3-(Cyclopentyloxy)-4-methoxyphenyl]pyrrolidin-2-one], the “fold more potent than the S-(+) enantiomer” value in the data set on PDE4 [1] (PDE4 inhibitor rolipram, R-(-) versus S-(+) enantiomer) was “rolipram; 2-10-fold”.
In the case of `COc1cc(-c2ccc(=O)[nH]n2)ccc1OC(F)F` [Compound C8, 6-[4-(Difluoromethoxy)-3-methoxyphenyl]-3(2H)-pyridazinone], the figures for the IC50 with PDE3 and in the data set with PDE4 [2] were 500 nM and 800 nM, respectively.

As usually defined, the IC50 is the concentration at which inhibition is half-maximal.
